Paper PMC11246995 (Frontiers in Molecular Biosciences, 2024)
Where two headings read alike, the source gives them in different places.

Key:
kidney tissues = assay: H&E histology of rotenone-treated kidney tissue sections; assay type: in vivo; details: rat, single oral 2 mg/kg, 24 h
Method: (§1) Rats were sacrificed 24 h after drug administration, and the kidney and liver organs were immediately removed, flash-frozen with liquid nitrogen, and stored at −80°C in a freezer for long-term storage. The administration and harvesting of organs were conducted by the Pharmalytics Corporation, accredited by the Food and Drug Administration (FDA, Philippines) for bioavailability and bioequivalence research. The animal study was reviewed and approved by the Institutional Animal Care and Use Committee (IACUC) Esteleydes Animal Laboratory and Research Facility and by the Bureau of Animal Industry—Animal Health and Welfare Division in the Philippines.
Matrix was removed from the laser-ablated kidney sections using 95% EtOH for 20 s before rehydration with distilled water. The tissue-mounted glass slides were immersed in Harris hematoxylin solution (Sigma Aldrich, St. Louis, MO, United States) for 4 min and the excess was rinsed off with deionized water twice for 1 min. Hematoxylin differentiation of tissues was then performed using 0.5% acid alcohol for 10 s. The glass slides were rinsed using deionized water for 1 min followed by soaking in ammonia solution for 1 min and rinsing in deionized water twice for 1 min. Kidney sections were then counterstained using eosin Y solution (Sigma Aldrich, St. Louis, MO, United States) for 2 min. […]

[1] = ref Udeani et al., 2001; Organization for Economic Cooperation and Development, 2020; cited from earlier work
rats = details: ref Jiang et al. (2017); cited from earlier work
[2] = Qualitative MALDI MSI with ion mobility: spatial distribution of rotenone and its metabolites in kidney and liver; assay type: in vivo; details: rat, single oral 2 mg/kg, 24 h
Description: Matrix solution was applied to evenly coat the entire tissue surface using a HTX M5 Sprayer (HTX Technologies, LLC, Carrboro, NC, United States). The parameter settings were optimized to avoid metabolite delocalization and compromised spatial integrity. […]

[3] = MALDI quantitative MSI (on-tissue qMSI) of rotenone in kidney tissue sections after a single oral dose; assay type: in vivo; details: rat, single oral 2 mg/kg; for concentration at 24 h: kidney, po, 2 mg/kg
Method: as §1
Agarose-embedded kidney and liver organs were cut longitudinally at 5 µm thickness at −20°C using a cryostat (Leica CM 1950; Leica Biosystems, Germany), and thaw-mounted onto clean glass slides. The agarose-embedded kidney or liver was trimmed up to 500 µm to remove the agarose covering a portion of the organ. Subsequently, seven layers from the outer portion towards the middle were identified with a 100 µm distance between each layer. Representative cryosections were obtained from each identified layer of the untreated and drug-treated rat kidney. The agarose surrounding the kidney or liver cryosectioned tissue was manually removed before mounting onto a glass slide. Prior to matrix coating, the glass slides mounted with thin kidney cryosections were placed in a box and kept in a vacuum desiccator cabinet overnight ([Costa et al., 2013]; [Marques et al., 2014]; [Dalisay et al., 2015]; [Suarez et al., 2023]).
Matrix solution was applied to evenly coat the entire tissue surface using a HTX M5 Sprayer (HTX Technologies, LLC, Carrboro, NC, United States). The parameter settings were optimized to avoid metabolite delocalization and compromised spatial integrity. The kidney sections were sprayed with a matrix solution of 2,5-dihydroxybenzoic acid (DHB) (Acros Organics, New Jersey, United States) at a concentration of 40 mg/mL in MeOH/H2O (1:1 v/v). Matrix solution was homogeneously applied for 6 passes in a criss-cross (CC) pattern with a nozzle temperature of 80°C, 1 mm track spacing, 1,250 mm/min nozzle speed, and 10 psi nitrogen pressure.
This method utilized an untreated kidney tissue sample which was sectioned and mounted on a clean glass slide. An on-tissue calibration curve method for qMSI was followed ([Kibbe and Muddiman, 2024]). […] Linear regression analysis was applied and inspected to confirm linearity. The untreated tissue was spotted with calibrants, allowed to dry, and coated with matrix (DHB 40 mg/mL in MeOH:H2O, 1:1 v/v). MALDI MSI data were acquired in 100 μm pixel resolution using MALDI SYNAPT XS (Waters Corporation, Manchester, United Kingdom) in positive mode. The experiment was performed with three replicates per calibrant in three independent trials. In order to address variations that may occur during data acquisition for qMSI, the ion signals were normalized to the total ion current (TIC). The intensities obtained for each concentration were plotted and approximated using the least-squares method. The limits of detection (LOD) and quantification (LOQ) were calculated by averaging the calibration curves, using signal-to-noise ratios (S/N) of 3:1 for LOD and 10:1 for LOQ. The validity of these limits was confirmed by applying serially diluted rotenone onto the tissue. In cases where the blank response has a standard deviation (SD) of zero, the SD of the lowest non-zero concentration was utilized. The SD value was divided by the slope of the calibration curve and multiplied by 3.3. The LOD was calculated using the formula LOD=3.3 x SDlowest non−zero concentration/slope of the calibration curve
To calculate the LOD and LOQ values in kidney tissue (pg/ng), the values were divided by the renal tissue density (ng/µL). […]

**Q.** Which results are given for `C=C(C)[C@H]1Cc2c(ccc3c2O[C@@H]2COc4cc(OC)c(OC)cc4[C@@H]2C3=O)O1` [rotenone, Rotenone]?
**A.** histological alterations in kidney tissue sections stained with H&E (kidney tissues): no discernible histological alterations were detected; metabolic clearance rate [1]: approximately 100 mL/min/kg; oral acute toxicity (rats): 34.10 mg/kg body weight; biotransformed metabolites of rotenone in kidney tissue sections (MALDI MSI) ([2]; kidney): no biotransformed metabolites of rotenone were detected; biotransformed metabolites of rotenone in liver tissues (MALDI MSI) ([2]; liver): no biotransformed metabolites; concentration at 24 h ([3]; AVERAGE ± SD of 7 kidney tissue sections, read-out: Concentration): 6200 ± 3800 ng/mL; concentration at 24 h ([3]; AVERAGE ± SD of 7 kidney tissue sections, read-out: Relative concentration per tissue section): 5860 ng/g; concentration at 24 h ([3]; Kidney Tissue 1 (layer 1), read-out: Concentration): 3600 ng/mL; concentration at 24 h ([3]; Kidney Tissue 1 (layer 1), read-out: Relative concentration per tissue section): 1650 ng/g; concentration at 24 h ([3]; Kidney Tissue 2 (layer 2), read-out: Concentration): 2000 ng/mL; concentration at 24 h ([3]; Kidney Tissue 2 (layer 2), read-out: Relative concentration per tissue section): 1100 ng/g; concentration at 24 h ([3]; Kidney Tissue 3 (layer 3), read-out: Concentration): 2600 ng/mL; concentration at 24 h ([3]; Kidney Tissue 3 (layer 3), read-out: Relative concentration per tissue section): 1910 ng/g; concentration at 24 h ([3]; Kidney Tissue 4 (layer 4), read-out: Concentration): 7200 ng/mL; concentration at 24 h ([3]; Kidney Tissue 4 (layer 4), read-out: Relative concentration per tissue section): 5950 ng/g; concentration at 24 h ([3]; Kidney Tissue 5 (layer 5), read-out: Concentration): 7000 ng/mL; concentration at 24 h ([3]; Kidney Tissue 5 (layer 5), read-out: Relative concentration per tissue section): 6420 ng/g; concentration at 24 h ([3]; Kidney Tissue 6 (layer 6), read-out: Concentration): 8000 ng/mL; concentration at 24 h ([3]; Kidney Tissue 6 (layer 6), read-out: Relative concentration per tissue section): 9210 ng/g; concentration at 24 h ([3]; Kidney Tissue 7 (layer 7), read-out: Concentration): 12800 ng/mL; concentration at 24 h ([3]; Kidney Tissue 7 (layer 7), read-out: Relative concentration per tissue section): 14700 ng/g; Normalized Mass intensity by TIC ([3]; 24 h, AVERAGE ± SD of 7 kidney tissue sections): 0.0042 ± 0.0019; Normalized Mass intensity by TIC ([3]; 24 h, Kidney Tissue 1 (layer 1)): 0.0030; Normalized Mass intensity by TIC ([3]; 24 h, Kidney Tissue 2 (layer 2)): 0.0022; Normalized Mass intensity by TIC ([3]; 24 h, Kidney Tissue 3 (layer 3)): 0.0025; Normalized Mass intensity by TIC ([3]; 24 h, Kidney Tissue 4 (layer 4)): 0.0048; Normalized Mass intensity by TIC ([3]; 24 h, Kidney Tissue 5 (layer 5)): 0.0047; Normalized Mass intensity by TIC ([3]; 24 h, Kidney Tissue 6 (layer 6)): 0.0052; Normalized Mass intensity by TIC ([3]; 24 h, Kidney Tissue 7 (layer 7)): 0.0076; Detected amount of rotenone drug in picograms per nanogram of tissue mass ([3]; 24 h, range over seven kidney layers): 0.0011 to 0.0147 pg/ng
